Reference: patent US9012493B2, “1-heterodiene derivative and pest control agent” (Nippon Soda Co., Ltd., priority 2009, dated 2015)

How the values were obtained:
Format in all cases: in vivo
[1] = tested on: Sweetpotato Whitefly (Bemisia Tabaci); test: Efficacy test against sweetpotato whitefly, sprayed tomato leaf; details: 125 ppm, emulsifiable concentrate diluted with water, adults (type B), after 2 days, 25° C.
Procedure: (§1) Test Examples of the pest control agent thus obtained according to the present invention are shown below. In respective Test Examples, the insecticidal rate (%) was determined by the following calculation equation. Insecticidal rate (%)=(number of dead pests/number of released pests)×100
The emulsifiable concentrate obtained according to Formulation of Formulation Example 2 was diluted with water so as to control the concentration of the compound to 125 ppm. The diluted solution was sprayed over a tomato leaf obtained by cutting and then air-dried. Using absorbent cotton, the leaf was fixed to a flask so that a front surface of the leaf faces upward. Seven pairs of adults of sweetpotato whitefly (type B) were inoculated in this container, and the container was placed in a temperature-controlled room at a temperature of 25° C. and a humidity of 65%. After 2 days, life and death were examined and the insecticidal rate was determined. The test was repeated twice.

[2] = tested on: Rice Armyworm (Mythimna Separata); test: Efficacy test against rice armyworm, corn leaf dip; details: 125 ppm, emulsifiable concentrate diluted with water, corn leaves immersed, second instar larvae, after 5 days, 25° C.
Procedure: as §1
The emulsifiable concentrate obtained according to Formulation of Formulation Example 2 was diluted with water so as to control the concentration of the compound to 125 ppm. Leaves of corn were immersed in this diluted solution for 30 seconds and then air-dried. The leaves were put in a petri dish on which a filter paper is laid, and then five second instar larvae of rice armyworm were inoculated. After covering the petri dish with a glass lid, the petri dish was placed in a temperature-controlled room at a temperature of 25° C. and a humidity of 65%. After 5 days, life and death were examined and the insecticidal rate was determined. The test was repeated twice.

[3] = tested on: Cotton Aphid (Aphis Gossypii); test: Efficacy test against cotton aphid, spray on cucumber plant; details: 125 ppm, emulsifiable concentrate diluted with water, sprayed over cucumber plant with nymphs, after 5 days, 25° C.
Procedure: as §1
The emulsifiable concentrate obtained according to Formulation of Formulation Example 2 was diluted with water so as to control the concentration of the compound to 125 ppm. Adults of cotton aphids were inoculated to a cucumber plant (approximately 10 days after sprouting) sown in a 3 sun/size pot (9 cm). After 1 day, adult aphids were removed and the diluted solution was sprayed over the cucumber plant on which delivered nymphs are parasitic. The pot was placed in a temperature-controlled room at a temperature of 25° C. and a humidity of 65%. After 5 days, life and death were examined and the insecticidal rate was determined. The test was repeated twice.

[4] = tested on: Twospotted Spider Mite (Tetranychus Urticae Koch); test: Efficacy test against twospotted spider mite, spray on kidney bean plant; details: 125 ppm, wettable powder diluted with water, sprayed, female adults with resistance to an organophosphorus agent on kidney bean, after 3 days
Procedure: The wettable powder obtained according to Formulation of Formulation Example 1 was diluted with water so as to control the concentration of the compound to 125 ppm. Seventeen female adults of twospotted spider mite with resistance to an organophosphorus agent were inoculated on a first true leaf of a kidney bean plant (approximately 7 to 10 days after sprouting) sown in a 3 sun/size pot (9 cm). The diluted solution was sprayed. The pot was placed in a temperature-controlled room at a temperature of 25° C. and a humidity of 65%. After 3 days, the adulticidal rate was examined. The test was repeated twice.

C=C1SC(=Nc2ccc(C)cc2)C(=CSc2cccc(F)c2)CC1(C)C (mixture of isomers) [Compound 2-84]
100%: insecticidal rate [1] | insecticidal rate [2] | insecticidal rate [3] | adulticidal rate [4]

C=C1SC(=Nc2ccc(C)cc2)C(=CSc2ccccc2F)CC1(C)C (mixture of isomers) [Compound 2-85]
100%: insecticidal rate [1] | insecticidal rate [2] | insecticidal rate [3] | adulticidal rate [4]

C=C1SC(=Nc2ccc(C)cc2)C(=CSc2ccc(C)cc2)CC1(C)C (mixture of isomers) [Compound 2-86]
100%: insecticidal rate [1] | insecticidal rate [2] | insecticidal rate [3] | adulticidal rate [4]

C=C1SC(=Nc2ccc(C)cc2)C(=CSc2ccc(Cl)cc2)CC1(C)C (mixture of isomers) [Compound 2-87]
100%: insecticidal rate [1] | insecticidal rate [2] | insecticidal rate [3] | adulticidal rate [4]

C=C1SC(=Nc2ccc(C)cc2)C(=CSc2cccc3ccccc23)CC1(C)C (mixture of isomers) [Compound 2-89]
100%: insecticidal rate [1] | insecticidal rate [2] | insecticidal rate [3] | adulticidal rate [4]

CC(C)=C1CCC(=CSc2ccccc2)C(=Nc2ccc(C)cc2)S1 (mixture of isomers) [Compound 6-1]
100%: insecticidal rate [1] | insecticidal rate [2] | insecticidal rate [3] | adulticidal rate [4]

CC(C)=C1CCC(=CSc2ccc(F)cc2)C(=Nc2ccc(C)cc2)S1 (mixture of isomers) [Compound 6-2]
100%: insecticidal rate [1] | insecticidal rate [2] | adulticidal rate [4]

C=C1SC(=Nc2ccc(C)cc2)C(=CSc2cccnc2)CC1(C)C (mixture of isomers) [Compound 6-6]
100%: insecticidal rate [1] | insecticidal rate [2] | adulticidal rate [4]

C=C1SC(=Nc2ccc(C)cc2)C(=CSc2ccc(F)cc2F)CC1(C)C (mixture of isomers) [Compound 6-7]
100%: insecticidal rate [1] | insecticidal rate [2] | adulticidal rate [4]

C=C1SC(=Nc2ccc(C)cc2)C(=CSc2ccccc2)CC1c1ccccc1 (racemic) [Compound 2-15]
100%: insecticidal rate [1] | insecticidal rate [2] | insecticidal rate [3] | adulticidal rate [4]

CC(C)=C1CCC(=C\Sc2ccccc2)/C(=N/c2ccc(Cl)cc2)S1 [Compound 2-2, (4-chloro-phenyl)-{6-isopropylidene-3-[1-phenylsulfanyl-(E)-methylidene]-tetrahydro-thiopyran-(2Z)-ylidene}-amine]
100%: insecticidal rate [1] | insecticidal rate [2] | insecticidal rate [3] | adulticidal rate [4]

CC/C=C1/CCC(=C\Sc2ccccc2)/C(=N/c2ccc(Cl)cc2)S1 [Compound 2-3]
100%: insecticidal rate [1] | insecticidal rate [2] | insecticidal rate [3] | adulticidal rate [4]

C=C1CCC(=CSc2ccccc2)C(=Nc2ccc(C)cc2)S1 [Compound 2-4]
100%: insecticidal rate [1] | insecticidal rate [2] | insecticidal rate [3] | adulticidal rate [4]

C=C1CCC(=CSc2ccc(F)cc2)C(=Nc2ccc(C)cc2)S1 [Compound 2-6]
100%: insecticidal rate [1] | insecticidal rate [2] | insecticidal rate [3] | adulticidal rate [4]

C=C1SC(=N\c2ccc(C)cc2)/C(=C/Sc2ccccc2)CC1(C)C [Compound 2-11, {5,5-dimethyl-6-methylene-3-[1-phenylsulfanyl-(E)-methylidene]-tetrahydro-thiopyran-(2Z)-ylidene}-p-tolyl-amine]
100%: insecticidal rate [1] | insecticidal rate [2] | insecticidal rate [3] | adulticidal rate [4]

C=C1SC(=Nc2ccc(Cl)cc2)C(=CSc2ccccc2)CC1(C)C [Compound 2-12]
100%: insecticidal rate [1] | insecticidal rate [2] | insecticidal rate [3] | adulticidal rate [4]

C=C1SC(=Nc2ccc(Cl)cc2)C(=CSc2ccc(F)cc2)CC1(C)C [Compound 2-13]
100%: insecticidal rate [1] | insecticidal rate [2] | insecticidal rate [3] | adulticidal rate [4]

C=C1CCC(=CSc2ccccc2)C(=[NH+]c2ccc(C)cc2)S1.F[B-](F)(F)F [Compound 2-14]
100%: insecticidal rate [1] | insecticidal rate [2] | insecticidal rate [3] | adulticidal rate [4]

C=C1SC(=Nc2ccc(C)cc2)C(=CSc2ccccc2)CC12CCCCC2 [Compound 2-17]
100%: insecticidal rate [1] | insecticidal rate [2] | insecticidal rate [3] | adulticidal rate [4]

C=C1SC(=Nc2ccc(C)cc2)C(=CSc2cccc(OC)c2)CC1(C)C [Compound 2-20]
100%: insecticidal rate [1] | insecticidal rate [2] | insecticidal rate [3] | adulticidal rate [4]

C=C1SC(=Nc2ccccc2OC)C(=CSc2ccccc2)CC1(C)C [Compound 2-27]
100%: insecticidal rate [1] | insecticidal rate [2] | adulticidal rate [4]

C=C1SC(=Nc2ccc(OC)c(C)c2)C(=CSc2ccccc2)CC1(C)C [Compound 2-34]
100%: insecticidal rate [1] | insecticidal rate [2] | insecticidal rate [3] | adulticidal rate [4]

C=C1SC(=Nc2ccc(Cl)c(Cl)c2)C(=CSc2ccccc2)CC1(C)C [Compound 2-35]
100%: insecticidal rate [1] | insecticidal rate [2] | insecticidal rate [3] | adulticidal rate [4]

C=C1SC(=Nc2cc(OC)cc(OC)c2)C(=CSc2ccccc2)CC1(C)C [Compound 2-38]
100%: insecticidal rate [1] | adulticidal rate [4]

C=C1SC(=Nc2ccc(OC)cc2)C(=CSc2ccccn2)CC1(C)C [Compound 2-50]
100%: insecticidal rate [1] | insecticidal rate [3] | adulticidal rate [4]

C=C1SC(=Nc2ccc(OC)cc2)C(=CSc2cccs2)CC1(C)C [Compound 2-51]
100%: insecticidal rate [3] | adulticidal rate [4]

C=C1SC(=Nc2ccc(C)cc2OC)C(=CSc2ccccc2)CC1(C)C [Compound 2-59]
100%: insecticidal rate [1] | insecticidal rate [2] | adulticidal rate [4]

C=C1SC(=Nc2ccc(C)cc2)C(=CSc2nccs2)CC1(C)C [Compound 2-73]
100%: insecticidal rate [2] | insecticidal rate [3] | adulticidal rate [4]

C=C1SC(=Nc2ccc(C)cc2)C(=CSc2ccncc2)CC1(C)C [Compound 2-92]
100%: insecticidal rate [1] | insecticidal rate [2] | adulticidal rate [4]

C=C1SC(=Nc2ccc(C)cc2)C(=CSc2cccc(Br)c2)CC1(C)C [Compound 2-101]
100%: insecticidal rate [1] | insecticidal rate [2] | adulticidal rate [4]

C=C1SC(=Nc2ccc(C)cc2)C(=CSc2ccccc2Br)CC1(C)C [Compound 2-102]
100%: insecticidal rate [1] | insecticidal rate [2] | adulticidal rate [4]

C=C1SC(=Nc2ccc(C)cc2)C(=CSc2sccc2C)CC1(C)C [Compound 2-104]
100%: insecticidal rate [1] | insecticidal rate [2] | adulticidal rate [4]

C=C1SC(=Nc2ccc(C)cc2)C(=CSc2cccc(C#N)c2)CC1(C)C [Compound 2-106]
100%: insecticidal rate [1] | insecticidal rate [2] | adulticidal rate [4]

C=C1SC(=Nc2ccc(C)cc2)C(=CSc2c(F)cccc2F)CC1(C)C [Compound 2-114]
100%: insecticidal rate [1] | insecticidal rate [2] | adulticidal rate [4]

C=C1SC(=Nc2ccc(C)cc2)C(=CSc2c(C)cccc2C)CC1(C)C [Compound 2-119]
100%: insecticidal rate [1] | insecticidal rate [2] | adulticidal rate [4]

C=C1SC(=Nc2ccc(C)cc2)C(=CSc2ccc(C(C)C)cc2)CC1(C)C [Compound 2-151]
100%: insecticidal rate [1] | insecticidal rate [2] | adulticidal rate [4]
